Laboratory results reported in patent US20230365592A1 (Agios Pharmaceuticals, Inc., priority 2022, published 2023).

molecular target: T1, human PAH with the R408W mutation (Homo sapiens, UniProt P00439, R408W); assay: Cell Based Phenylalanine Flux Assay; conditions: A375 cells expressing R408W PAH; 24 hrs with compound, then 20 µM sepiapterin and 800 µM 13C9,15N-Phenylalanine for 4 hours; 13C-Tyrosine by LC-MS; average where tested multiple times; read-out: AC50;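 also: after compound treatment, cells received sepiapterin plus isotope-labelled Phenylalanine for 4 hours, then labelled Tyrosine in the medium was quantified, 10-point 2-fold dilution series run in duplicate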
T1 construct: expressed in transfected cells
T1 sequence (P00439 1-452 R408W): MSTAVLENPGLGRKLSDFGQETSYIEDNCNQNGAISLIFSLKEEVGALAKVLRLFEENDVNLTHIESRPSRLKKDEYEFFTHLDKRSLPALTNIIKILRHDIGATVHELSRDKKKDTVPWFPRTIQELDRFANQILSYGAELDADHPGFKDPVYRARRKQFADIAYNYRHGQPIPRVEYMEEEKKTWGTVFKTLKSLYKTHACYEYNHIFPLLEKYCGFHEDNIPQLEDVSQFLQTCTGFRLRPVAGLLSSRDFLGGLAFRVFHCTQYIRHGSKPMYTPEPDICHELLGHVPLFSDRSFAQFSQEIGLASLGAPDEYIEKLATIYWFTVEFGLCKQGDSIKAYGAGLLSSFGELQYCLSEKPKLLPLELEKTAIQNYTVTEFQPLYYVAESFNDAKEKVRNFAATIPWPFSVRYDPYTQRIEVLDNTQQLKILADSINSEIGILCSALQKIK
Procedure: Compounds were resuspended in DMSO, and 2-fold serial dilutions were performed to generate a 10-point dose curve. Compounds were added to plated cells in a total volume of 100 µl, and a final DMSO concentration of 0.5%. Each compound was tested in duplicate. Following compound addition, cells were placed in a 5% CO2, 37° C. tissue culture incubator for 24 hrs. After the incubation period, 20 µM sepiapterin and 800 µM 13C9,15N-Phenylalanine were added. After 4 hours, cell media was removed. An aliquot of 10 µl of cell media was combined with 200 µl of extraction buffer (80% acetonitrile/20% H2O) for each well. Determination of ^13C-Tyrosine concentration was assessed by liquid chromatography mass spectrometry.
Where a compound was tested multiple times, the average value of the tests is reported.

AC50	SMILES
> 5 µM	O=C(Cc1cnn2ccccc12)N1CCc2[nH]cnc2C1c1cc2ccccn2n1 (stereo not shown)
> 5 µM	Cc1cccc2cc(C3c4nc[nH]c4CCN3C(=O)c3nc(C(F)(F)F)nn3C)nn12 (stereo not shown) [listing 1 of 2 here]
> 5 µM	Cn1cc(-c2nnc(C(=O)N3CCc4[nH]cnc4C3c3cc4cc(C(F)(F)F)ccn4n3)o2)cn1 (stereo not shown) [listing 1 of 2 here]
> 5 µM	Cc1ccn2nc(C3c4nc[nH]c4CCN3C(=O)c3nnc(C(C)(C)F)o3)cc2c1 (stereo not shown) [listing 1 of 2 here]
1 to 5 µM	O=C(c1ccn(-c2ccccn2)n1)N1CCc2[nH]cnc2C1c1cc2c(F)cccn2n1 (stereo not shown) [listing 1 of 2 here]
> 5 µM	Cc1cccn2nc(C3c4nc[nH]c4CCN3C(=O)c3ccn(-c4ccccn4)n3)cc12 (stereo not shown) [listing 1 of 2 here]
> 5 µM	Cc1nnc(C(=O)N2CCc3[nH]cnc3C2c2cc3c(F)cccn3n2)o1 (stereo not shown) [listing 1 of 2 here]
1 to 5 µM	Cc1nnc(C(=O)N2CCc3[nH]cnc3C2c2cc3cc(F)ccn3n2)o1 (stereo not shown) [listing 1 of 2 here]
> 5 µM	Cn1ccc(-c2nnc(C(=O)N3CCc4[nH]cnc4C3c3cc4cc(F)ccn4n3)o2)n1 (stereo not shown) [listing 1 of 2 here]
1 to 5 µM	Cc1nnc(C(=O)N2CCc3[nH]cnc3C2c2cc3cccc(Cl)n3n2)o1 (stereo not shown) [listing 1 of 2 here]
> 5 µM	O=C(c1nnc(-c2ccccn2)o1)N1CCc2[nH]cnc2C1c1cc2cc(F)ccn2n1 (stereo not shown) [listing 1 of 2 here]
> 5 µM	Cc1ccn2nc(C3c4nc[nH]c4CCN3C(=O)c3nnc(C(C)(C)O)o3)cc2c1 (stereo not shown) [listing 1 of 2 here]
1 to 5 µM	CC(C)(O)c1nnc(C(=O)N2CCc3[nH]cnc3C2c2cc3cccc(C(F)(F)F)n3n2)o1 (stereo not shown) [listing 1 of 2 here]
1 to 5 µM	Cc1ccn2nc(C3c4nc[nH]c4CCN3C(=O)c3nnc(C4CC4)o3)cc2c1 (stereo not shown) [listing 1 of 2 here]
> 5 µM	CC(C)(C)c1nnc(C(=O)N2CCc3[nH]cnc3C2c2cc3cc(F)ccn3n2)o1 (stereo not shown) [listing 1 of 2 here]
1 to 5 µM	Cc1ccn2nc(C3c4nc[nH]c4CCN3C(=O)c3nnc(C(C)(C)C)o3)cc2c1 (stereo not shown) [listing 1 of 2 here]
> 5 µM	Cc1cccn2nc(C3c4nc[nH]c4CCN3C(=O)c3cc(C(C)(C)C)nn3C)cc12 (stereo not shown) [listing 1 of 2 here]
1 to 5 µM	Cn1nc(C(C)(C)C)cc1C(=O)N1CCc2[nH]cnc2C1c1cc2ccccn2n1 (stereo not shown) [listing 1 of 2 here]
1 to 5 µM	Cn1ncnc1C(=O)N1CCc2[nH]cnc2C1c1cc2cccc(Cl)n2n1 (stereo not shown) [listing 1 of 2 here]
1 to 5 µM	O=C(Cc1nncs1)N1CCc2nc[nH]c2C1c1cc2ccccn2n1 (stereo not shown)
1 to 5 µM	CN1CCN(c2nnc(C(=O)N3CCc4[nH]cnc4C3c3cc4c(F)cccn4n3)o2)CC1 (stereo not shown)
1 to 5 µM	Cc1cccn2nc(C3c4nc[nH]c4CCN3C(=O)c3nnc(N4CCN(C)CC4)o3)cc12 (stereo not shown)
1 to 5 µM	Cc1cccc2cc(C3c4nc[nH]c4CCN3C(=O)c3nc(C(F)(F)F)nn3C)nn12 (stereo not shown) [listing 2 of 2 here]

AC50	SMILES
1 to 5 µM	Cc1cccc2cc(C3c4nc[nH]c4CCN3C(=O)c3ncnn3C)nn12 (stereo not shown)
1 to 5 µM	Cc1nc(C(=O)N2CCc3[nH]cnc3C2c2cc3cccc(C)n3n2)n(C)n1 (stereo not shown)
1 to 5 µM	Cc1nc(C(=O)N2CCc3[nH]cnc3C2c2cc3ccccn3n2)n(C)n1 (stereo not shown)
1 to 5 µM	Cc1cccc2cc(C3c4nc[nH]c4CCN3C(=O)c3nnc(-c4cncn4C)o3)nn12 (stereo not shown)
1 to 5 µM	Cn1cc(-c2nnc(C(=O)N3CCc4[nH]cnc4C3c3cc4cc(C(F)(F)F)ccn4n3)o2)cn1 (stereo not shown) [listing 2 of 2 here]
1 to 5 µM	Cc1ccn2nc(C3c4nc[nH]c4CCN3C(=O)c3nnc(C(C)(C)F)o3)cc2c1 (stereo not shown) [listing 2 of 2 here]
1 to 5 µM	O=C(c1ccn(-c2ccccn2)n1)N1CCc2[nH]cnc2C1c1cc2c(F)cccn2n1 (stereo not shown) [listing 2 of 2 here]
1 to 5 µM	Cc1cccn2nc(C3c4nc[nH]c4CCN3C(=O)c3ccn(-c4ccccn4)n3)cc12 (stereo not shown) [listing 2 of 2 here]
1 to 5 µM	Cc1nnc(C(=O)N2CCc3[nH]cnc3C2c2cc3c(F)cccn3n2)o1 (stereo not shown) [listing 2 of 2 here]
1 to 5 µM	Cn1ccc(-c2nnc(C(=O)N3CCc4[nH]cnc4C3c3cc4cc(F)ccn4n3)o2)n1 (stereo not shown) [listing 2 of 2 here]
1 to 5 µM	Cc1nnc(C(=O)N2CCc3[nH]cnc3C2c2cc3cc(F)ccn3n2)o1 (stereo not shown) [listing 2 of 2 here]
1 to 5 µM	Cn1cc(-c2nnc(C(=O)N3CCc4[nH]cnc4C3c3cc4cc(F)ccn4n3)o2)cn1 (stereo not shown)
1 to 5 µM	Cn1cncc1-c1nnc(C(=O)N2CCc3[nH]cnc3C2c2cc3cccc(Cl)n3n2)o1 (stereo not shown)
1 to 5 µM	Cc1nnc(C(=O)N2CCc3[nH]cnc3C2c2cc3cccc(Cl)n3n2)o1 (stereo not shown) [listing 2 of 2 here]
1 to 5 µM	CC(C)(O)c1nnc(C(=O)N2CCc3[nH]cnc3C2c2cc3c(C(F)(F)F)cccn3n2)o1 (stereo not shown)
1 to 5 µM	O=C(c1nnc(-c2ccccn2)o1)N1CCc2[nH]cnc2C1c1cc2cc(F)ccn2n1 (stereo not shown) [listing 2 of 2 here]
> 5 µM	CC(C)(O)c1nnc(C(=O)N2CCc3[nH]cnc3C2c2cc3cc(F)ccn3n2)o1 (stereo not shown)
1 to 5 µM	Cc1ccn2nc(C3c4nc[nH]c4CCN3C(=O)c3nnc(C(C)(C)O)o3)cc2c1 (stereo not shown) [listing 2 of 2 here]
1 to 5 µM	CC(C)(O)c1nnc(C(=O)N2CCc3[nH]cnc3C2c2cc3ccc(C(F)(F)F)cn3n2)o1 (stereo not shown)
1 to 5 µM	CC(C)(O)c1nnc(C(=O)N2CCc3[nH]cnc3C2c2cc3ccc(F)cn3n2)o1 (stereo not shown)
1 to 5 µM	CC(C)(O)c1nnc(C(=O)N2CCc3[nH]cnc3C2c2cc3cccc(C(F)(F)F)n3n2)o1 (stereo not shown) [listing 2 of 2 here]
1 to 5 µM	CC(C)(O)c1nnc(C(=O)N2CCc3[nH]cnc3C2c2cc3cccc(Cl)n3n2)o1 (stereo not shown)
1 to 5 µM	CC(C)(O)c1nnc(C(=O)N2CCc3[nH]cnc3C2c2cc3ccccn3n2)o1 (stereo not shown)

AC50	SMILES
1 to 5 µM	O=C(c1nnc(C2CC2)o1)N1CCc2[nH]cnc2C1c1cc2cc(C(F)(F)F)ccn2n1 (stereo not shown)
1 to 5 µM	Cc1ccn2nc(C3c4nc[nH]c4CCN3C(=O)c3nnc(C4CC4)o3)cc2c1 (stereo not shown) [listing 2 of 2 here]
1 to 5 µM	O=C(c1nnc(C2CC2)o1)N1CCc2[nH]cnc2C1c1cc2ccc(C(F)(F)F)cn2n1 (stereo not shown)
> 5 µM	Cc1ccn2nc(C3c4nc[nH]c4CCN3C(=O)c3nnc(C)o3)cc2c1 (stereo not shown)
1 to 5 µM	Cc1nnc(C(=O)N2CCc3[nH]cnc3C2c2cc3ccc(C(F)(F)F)cn3n2)o1 (stereo not shown)
1 to 5 µM	Cc1nnc(C(=O)N2CCc3[nH]cnc3C2c2cc3cccc(C(F)(F)F)n3n2)o1 (stereo not shown)
1 to 5 µM	Cc1nnc(C(=O)N2CCc3[nH]cnc3C2c2cc3cccc(C)n3n2)o1 (stereo not shown)
1 to 5 µM	CC(C)(C)c1nnc(C(=O)N2CCc3[nH]cnc3C2c2cc3cc(F)ccn3n2)o1 (stereo not shown) [listing 2 of 2 here]
1 to 5 µM	Cc1ccn2nc(C3c4nc[nH]c4CCN3C(=O)c3nnc(C(C)(C)C)o3)cc2c1 (stereo not shown) [listing 2 of 2 here]
1 to 5 µM	CC(C)(C)c1nnc(C(=O)N2CCc3[nH]cnc3C2c2cc3ccc(C(F)(F)F)cn3n2)o1 (stereo not shown)
1 to 5 µM	Cc1cccc2cc(C3c4nc[nH]c4CCN3C(=O)c3nc(C(F)F)nn3C)nn12 (stereo not shown)
1 to 5 µM	Cn1nc(C(F)F)nc1C(=O)N1CCc2[nH]cnc2C1c1cc2cc(F)ccn2n1 (stereo not shown)
1 to 5 µM	Cc1cccc2cc(C3c4nc[nH]c4CCN3C(=O)c3nc(C4CC4)nn3C)nn12 (stereo not shown)
1 to 5 µM	Cc1cccn2nc(C3c4nc[nH]c4CCN3C(=O)c3cc(C(C)(C)C)nn3C)cc12 (stereo not shown) [listing 2 of 2 here]
1 to 5 µM	Cn1nc(C(C)(C)C)cc1C(=O)N1CCc2[nH]cnc2C1c1cc2ccccn2n1 (stereo not shown) [listing 2 of 2 here]
1 to 5 µM	Cn1nc(C(C)(C)C)cc1C(=O)N1CCc2[nH]cnc2C1c1cc2c(F)cccn2n1 (stereo not shown)
1 to 5 µM	COc1cccn2nc(C3c4nc[nH]c4CCN3C(=O)c3cc(C(C)(C)C)nn3C)cc12 (stereo not shown)
1 to 5 µM	O=C(c1ocnc1CC(F)F)N1CCc2[nH]cnc2C1c1cc2ccccn2n1 (stereo not shown)
1 to 5 µM	O=C(c1ocnc1C(F)F)N1CCc2[nH]cnc2C1c1cc2cc(C(F)(F)F)ccn2n1 (stereo not shown)
1 to 5 µM	Cn1ncnc1C(=O)N1CCc2[nH]cnc2C1c1cc2cccc(Cl)n2n1 (stereo not shown) [listing 2 of 2 here]
1 to 5 µM	O=C(C1CC1)N1CCc2[nH]cnc2C1c1cc2ccccn2n1 (stereo not shown)

SMILES	AC50
CC(C)(F)c1nnc(C(=O)N2CCc3[nH]cnc3C2c2cc3cc(F)ccn3n2)o1 (stereo not shown)	1 to 5 µM
O=C(c1nnc(-c2ccccn2)o1)N1CCc2[nH]cnc2C1c1cc2cc(C(F)(F)F)ccn2n1 (stereo not shown) [listing 1 of 2 here]	1 to 5 µM
O=C(c1nnc(-c2ccccn2)o1)N1CCc2[nH]cnc2C1c1cc2cc(C(F)(F)F)ccn2n1 (stereo not shown) [listing 2 of 2 here]	1 to 5 µM
